Assay results taken from PubChem BioAssay AID1963983 (Molecular Pharmacology Branch, DTP, NCI, 2024).

Test system: 186277-243-T-J2-PDC multi-cell spheroid viability
Assay: Anticancer human tumor 186277-243-T-J2-PDC patient-derived colon adenocarcinoma cell line growth inhibition [PI3K]
Conditions: for viability, T/C: stronger effect = lower value; active = viability on the fitted dose curve at most 10% of control; inactive = the rest
Method in brief: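 Multi-cell spheroids combine tumor cells with HUVEC and human MSCs, treated with targeted agents alone or with inavolisib, alpelisib, duvelisib or copanlisib. Concentrations fall in half-log steps from at or near clinical Cmax, or from 10 microM where Cmax is unknown; viability read-out.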

[1] = curve of first compound, second compound 0.0316 µM
[2] = curve of first compound, second compound 0.1 µM
[3] = curve of first compound, second compound 0.316 µM
[4] = curve of first compound, second compound 1 µM
[5] = curve of first compound, second compound 3.16 µM
[6] = curve of first compound, second compound 10 µM
[7] = second compound 0.0316 µM, first compound 0.0316 µM
[8] = second compound 0.0316 µM, first compound 0.1 µM
[9] = second compound 0.0316 µM, first compound 0.316 µM
[10] = second compound 0.0316 µM, first compound 1 µM
[11] = second compound 0.0316 µM, first compound 3.16 µM
[12] = second compound 0.0316 µM, first compound 10 µM
[13] = second compound 0.1 µM, first compound 0.0316 µM
[14] = second compound 0.1 µM, first compound 0.1 µM
[15] = second compound 0.1 µM, first compound 0.316 µM
[16] = second compound 0.1 µM, first compound 1 µM
[17] = second compound 0.1 µM, first compound 3.16 µM
[18] = second compound 0.1 µM, first compound 10 µM
[19] = second compound 0.316 µM, first compound 0.0316 µM
[20] = second compound 0.316 µM, first compound 0.1 µM
[21] = second compound 0.316 µM, first compound 0.316 µM
[22] = second compound 0.316 µM, first compound 1 µM
[23] = second compound 0.316 µM, first compound 3.16 µM
[24] = second compound 0.316 µM, first compound 10 µM
[25] = second compound 1 µM, first compound 0.0316 µM
[26] = second compound 1 µM, first compound 0.1 µM
[27] = second compound 1 µM, first compound 0.316 µM
[28] = second compound 1 µM, first compound 1 µM
[29] = second compound 1 µM, first compound 3.16 µM
[30] = second compound 1 µM, first compound 10 µM
[31] = second compound 3.16 µM, first compound 0.0316 µM
[32] = second compound 3.16 µM, first compound 0.1 µM
[33] = second compound 3.16 µM, first compound 0.316 µM
[34] = second compound 3.16 µM, first compound 1 µM
[35] = second compound 3.16 µM, first compound 3.16 µM
[36] = second compound 3.16 µM, first compound 10 µM
[37] = second compound 10 µM, first compound 0.0316 µM
[38] = second compound 10 µM, first compound 0.1 µM
[39] = second compound 10 µM, first compound 0.316 µM
[40] = second compound 10 µM, first compound 1 µM
[41] = second compound 10 µM, first compound 3.16 µM
[42] = second compound 10 µM, first compound 10 µM
[43] = curve of first compound, second compound 0.00316 µM
[44] = curve of first compound, second compound 0.01 µM
[45] = second compound 0.00316 µM, first compound 0.0316 µM
[46] = second compound 0.00316 µM, first compound 0.1 µM
[47] = second compound 0.00316 µM, first compound 0.316 µM
[48] = second compound 0.00316 µM, first compound 1 µM
[49] = second compound 0.00316 µM, first compound 3.16 µM
[50] = second compound 0.00316 µM, first compound 10 µM
[51] = second compound 0.01 µM, first compound 0.0316 µM
[52] = second compound 0.01 µM, first compound 0.1 µM
[53] = second compound 0.01 µM, first compound 0.316 µM
[54] = second compound 0.01 µM, first compound 1 µM
[55] = second compound 0.01 µM, first compound 3.16 µM
[56] = second compound 0.01 µM, first compound 10 µM
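Note: spheroids exposed to compounds for seven days before viability reading.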
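Throughout, for viability, T/C: 100% = DMSO vehicle control viability.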

Cn1ncc(Cl)c1-c1cc(C(=O)NC(CN)Cc2cccc(F)c2)sc1Cl (configuration not stated) + Cc1nc(NC(=O)N2CCCC2C(N)=O)sc1-c1ccnc(C(C)(C)C(F)(F)F)c1
inactive: viability, T/C [7] 96.2% | viability, T/C [8] 87.8% | viability, T/C [9] 56.8% | viability, T/C [10] 47.8% | viability, T/C [11] 43% | viability, T/C [12] 17.3% | viability, T/C [13] 112% | viability, T/C [14] 68% | viability, T/C [15] 43.4% | viability, T/C [16] 32.4% | viability, T/C [17] 33.2% | viability, T/C [18] 11.6% | viability, T/C [19] 114% | viability, T/C [20] 66.2% | viability, T/C [21] 43% | viability, T/C [22] 26.3% | viability, T/C [23] 25.3% | viability, T/C [24] 9.1% | viability, T/C [25] 95% | viability, T/C [26] 65.7% | viability, T/C [27] 25% | viability, T/C [28] 14.7% | viability, T/C [29] 17.2% | viability, T/C [30] 3.49% | viability, T/C [31] 48.7% | viability, T/C [32] 33.7% | viability, T/C [33] 19.6% | viability, T/C [34] 13.7% | viability, T/C [37] 15.7%
active: viability, T/C [35] 8.89% | viability, T/C [36] 1.65% | viability, T/C [38] 8.3% | viability, T/C [39] 6.89% | viability, T/C [40] 6.6% | viability, T/C [41] 3.36% | viability, T/C [42] 3.79%
< 0.0316 µM: IC50 [5] | IC50 [6]
0.225 µM: IC50 [3]
0.157 µM: IC50 [4]
0.96 µM: IC50 [1]
0.253 µM: IC50 [2]

C[C@@H](NC(=O)c1ncnc(N)c1Cl)c1ncc(C(=O)Nc2cc(C(F)(F)F)c(Cl)cn2)s1 + CC(Nc1ncnc2nc[nH]c12)c1cc2cccc(Cl)c2c(=O)n1-c1ccccc1
> 10 µM: IC50 [1] | IC50 [2] | IC50 [3] | IC50 [4] | IC50 [5]
inactive: viability, T/C [7] 92.6% | viability, T/C [8] 89.9% | viability, T/C [9] 93.7% | viability, T/C [10] 83.4% | viability, T/C [11] 105% | viability, T/C [12] 79.1% | viability, T/C [13] 84.3% | viability, T/C [14] 87.2% | viability, T/C [15] 90.1% | viability, T/C [16] 105% | viability, T/C [17] 108% | viability, T/C [18] 88% | viability, T/C [19] 94.5% | viability, T/C [20] 107% | viability, T/C [21] 94.3% | viability, T/C [22] 95% | viability, T/C [23] 105% | viability, T/C [24] 80.5% | viability, T/C [25] 88.1% | viability, T/C [26] 105% | viability, T/C [27] 96.7% | viability, T/C [28] 91% | viability, T/C [29] 102% | viability, T/C [30] 61.9% | viability, T/C [31] 107% | viability, T/C [32] 97.2% | viability, T/C [33] 104% | viability, T/C [34] 99.3% | viability, T/C [35] 93.3% | viability, T/C [36] 66.4% | viability, T/C [37] 84.8% | viability, T/C [38] 91.7% | viability, T/C [39] 107% | viability, T/C [40] 95.5% | viability, T/C [41] 72.8% | viability, T/C [42] 33.5%
6.16 µM: IC50 [6]

CC(Cn1ccc(-c2ccc(C#N)c(Cl)c2)n1)NC(=O)c1cc(C(C)O)[nH]n1 (configuration not stated) + COc1c(OCCCN2CCOCC2)ccc2c3n(c(=NC(=O)c4cnc(N)nc4)nc12)CCN3
active: viability, T/C [19] 6.31% | viability, T/C [20] 6.68% | viability, T/C [21] 3.61% | viability, T/C [22] 6.24% | viability, T/C [23] 6.1% | viability, T/C [24] 4.81% | viability, T/C [25] 3.61% | viability, T/C [26] 3.8% | viability, T/C [27] 2.93% | viability, T/C [28] 2.25% | viability, T/C [29] 3.36% | viability, T/C [30] 2.45%
> 10 µM: IC50 [43] | IC50 [44] | IC50 [1]
< 0.0316 µM: IC50 [2] | IC50 [3] | IC50 [4]
inactive: viability, T/C [45] 94.2% | viability, T/C [46] 92.1% | viability, T/C [47] 101% | viability, T/C [48] 105% | viability, T/C [49] 116% | viability, T/C [50] 86.9% | viability, T/C [51] 99.2% | viability, T/C [52] 100% | viability, T/C [53] 101% | viability, T/C [54] 108% | viability, T/C [55] 93.3% | viability, T/C [56] 90.1% | viability, T/C [7] 74.7% | viability, T/C [8] 74.9% | viability, T/C [9] 69.2% | viability, T/C [10] 70.9% | viability, T/C [11] 75.5% | viability, T/C [12] 58% | viability, T/C [13] 16.7% | viability, T/C [14] 17.3% | viability, T/C [15] 17.4% | viability, T/C [16] 15.9% | viability, T/C [17] 19% | viability, T/C [18] 17%

Cn1ncc(Cl)c1-c1cc(C(=O)NC(CN)Cc2cccc(F)c2)sc1Cl (configuration not stated)
inactive: viability, T/C (compound 0.0316 µM) 89.1% [middle of 4 runs] | viability, T/C (compound 0.1 µM) 85% [middle of 4 runs] | viability, T/C (compound 0.316 µM) 60.5% [middle of 4 runs] | viability, T/C (compound 1 µM) 45.4% [middle of 4 runs] | viability, T/C (compound 3.16 µM) 46.1% [middle of 4 runs] | viability, T/C (compound 10 µM) 19.8% [middle of 4 runs]
1.17 µM [middle of 4 runs]: IC50 (curve of compound)

CC1(C)CCC(CN2CCN(c3ccc(C(=O)NS(=O)(=O)c4ccc(NCC5CCOCC5)c([N+](=O)[O-])c4)c(Oc4cnc5[nH]ccc5c4)c3)CC2)=C(c2ccc(Cl)cc2)C1 + CC(Nc1ncnc2nc[nH]c12)c1cc2cccc(Cl)c2c(=O)n1-c1ccccc1
5.17 µM: IC50 [5]
4.67 µM: IC50 [6]
inactive: viability, T/C [7] 96.6% | viability, T/C [8] 96.2% | viability, T/C [9] 95% | viability, T/C [10] 105% | viability, T/C [11] 77.3% | viability, T/C [13] 99.5% | viability, T/C [14] 116% | viability, T/C [15] 96.7% | viability, T/C [16] 92.2% | viability, T/C [17] 70.5% | viability, T/C [19] 97% | viability, T/C [20] 108% | viability, T/C [21] 91.8% | viability, T/C [22] 98.6% | viability, T/C [23] 92.1% | viability, T/C [25] 105% | viability, T/C [26] 116% | viability, T/C [27] 102% | viability, T/C [28] 112% | viability, T/C [29] 77% | viability, T/C [31] 112% | viability, T/C [32] 115% | viability, T/C [33] 106% | viability, T/C [34] 103% | viability, T/C [35] 85.9% | viability, T/C [37] 97% | viability, T/C [38] 96.1% | viability, T/C [39] 97.2% | viability, T/C [40] 95.5% | viability, T/C [41] 74.7%
5.63 µM: IC50 [3]
4.86 µM: IC50 [1]
4.45 µM: IC50 [2]
active: viability, T/C [12] 4.52% | viability, T/C [18] 4.02% | viability, T/C [24] 8% | viability, T/C [30] 4.04% | viability, T/C [36] 3.14% | viability, T/C [42] 2.09%
4.84 µM: IC50 [4]

CC1(C)CCC(Nc2ncc(C(F)(F)F)c(-c3c[nH]c4c(P(C)(C)=O)c(C#N)ccc34)n2)CN1 (configuration not stated) + COc1c(OCCCN2CCOCC2)ccc2c3n(c(=NC(=O)c4cnc(N)nc4)nc12)CCN3
1.23 µM: IC50 [44]
3.59 µM: IC50 [43]
active: viability, T/C [50] 0.33% | viability, T/C [56] 0.85% | viability, T/C [12] 1.27% | viability, T/C [13] 7.6% | viability, T/C [14] 10.5% | viability, T/C [15] 7.54% | viability, T/C [16] 6.56% | viability, T/C [17] 5.27% | viability, T/C [18] 1.02% | viability, T/C [19] 2.73% | viability, T/C [20] 3.91% | viability, T/C [21] 3.66% | viability, T/C [22] 3.38% | viability, T/C [23] 1.31% | viability, T/C [24] 0.34% | viability, T/C [25] 2.08% | viability, T/C [26] 1.57% | viability, T/C [27] 1.5% | viability, T/C [28] 1.26% | viability, T/C [29] 1.04% | viability, T/C [30] 0.42%
< 0.0316 µM: IC50 [1] | IC50 [2] | IC50 [3] | IC50 [4]
inactive: viability, T/C [45] 64.8% | viability, T/C [46] 57.4% | viability, T/C [47] 52% | viability, T/C [48] 55.4% | viability, T/C [49] 56.2% | viability, T/C [51] 71.5% | viability, T/C [52] 54.7% | viability, T/C [53] 50.8% | viability, T/C [54] 54.1% | viability, T/C [55] 40.6% | viability, T/C [7] 37.3% | viability, T/C [8] 36.6% | viability, T/C [9] 26.8% | viability, T/C [10] 25.9% | viability, T/C [11] 14.5%
